Data as given in paper PMC7409168, “The Multidrug Resistance-Reversing Activity of a Novel Antimicrobial Peptide” (Cancers, 2020).
Read-outs that look alike come from different tables or passages of the source. Residues, ends and D or L forms follow the SMILES beside them.

Assays:
[1] = tested on: HEK293/pcDNA3.1; test: MTT cytotoxicity of ABCB1 substrates with or without a reversal agent, HEK293/pcDNA3.1; type: cell-based; details: no reversal agent; for IC50: mean ± SD, at least three independent experiments in triplicate, read-out: IC50 of the anticancer drug alone; for RF (resistant fold) of the anticancer drug alone: relative to drug alone in HEK293/pcDNA3.1
Source text: (§1) The drug-selected ABCG2-overexpressing non-small cell lung cancer (NSCLC) cell line NCI-H460/MX20 and its parental NCI-H460 cell line, and the ABCB1 gene-transfected HEK293 cells, HEK293/ABCB1, and its parental empty vector transfected HEK293 cells, HEK293/pcDNA3.1 were provided by Drs. Susan E. Bates and Robert Robey (NIH, MD). The drug-resistant ABCB1 overexpressing human epidermal carcinoma cell line KB-C2 and its parental KB-3-1 cell line were generously provided by Dr. Shin-Ichi Akiyama (Kagoshima University, Kagoshima, Japan). All cell lines were cultured in complete Dulbecco’s modified Eagle’s medium(DMEM) (Hyclone, GE Healthcare Life Sciences, Pittsburgh, PA, USA) with the addition of 10% fetal bovine serum (FBS) and 1% penicillin/streptomycin (Hyclone, GE Healthcare Life Sciences, Pittsburgh, PA, USA). The transfected cell lines were selected in complete medium with addition of 2 mg/mL of Geneticin (Enzo Life Sciences, Farmingdale, NY, USA) for selection, KB-C2 cells were continually treated with complete medium and […], and NCI-H460/MX20 cells were cultured with 20 ng/mL mitoxantrone added to the complete medium. All drug-treated cell lines were recovered for more than 2 weeks without treatment before their use. The culture condition was in a humidified incubator at 37 °C with 5% CO2.
(§2) The final absorbance of each well was measured by Microplate Spectrophotometer (Fisher Sci., Fair Lawn, NJ, USA) at 570 nm.

[2] = tested on: NCI-H460; test: MTT cytotoxicity of ABCG2 substrates with or without a reversal agent, NCI-H460; type: cell-based, human; details: for IC50 / RF (resistant fold) of the anticancer drug alone: no reversal agent; for IC50: mean ± SD, at least three independent experiments in triplicate, read-out: IC50 of the anticancer drug alone; for RF (resistant fold) of the anticancer drug alone: relative to drug alone in NCI-H460
Source text: as §1, §2

[3] = tested on: NCI-H460/MX20; test: MTT cytotoxicity of ABCG2 substrates with or without a reversal agent, NCI-H460/MX20; type: cell-based, human; details: for IC50: NCI-H460/MX20, mean ± SD, at least three independent experiments in triplicate, read-out: IC50 of the anticancer drug alone; for IC50 / RF (resistant fold) of the anticancer drug alone: no reversal agent
Source text: as §1, §2

[4] = tested on: KB-C2; test: MTT cytotoxicity of ABCB1 substrates with or without a reversal agent, KB-C2; details: for RF (resistant fold) of the anticancer drug alone: IC50 in KB-C2 divided by IC50 in KB-3-1
Source text: as §1, §2

[5] = tested on: KB-3-1; test: MTT cytotoxicity of ABCB1 substrates with or without a reversal agent, KB-3-1; type: cell-based, human; details: no reversal agent; for IC50: mean ± SD, at least three independent experiments in triplicate, read-out: IC50 of the anticancer drug alone; for RF (resistant fold) of the anticancer drug alone: IC50 relative to drug alone in KB-3-1
Source text: as §1, §2

[6] = tested on: HEK293/ABCB1; test: MTT cytotoxicity of ABCB1 substrates with or without a reversal agent, HEK293/ABCB1; type: cell-based; details: no reversal agent; for IC50: HEK293/ABCB1, mean ± SD, at least three independent experiments in triplicate, read-out: IC50 of the anticancer drug alone; for RF (resistant fold) of the anticancer drug alone: IC50 in HEK293/ABCB1 divided by IC50 in HEK293/pcDNA3.1
Source text: as §1, §2

[7] = in vitro; details: human
Source text: as §1, §2

[8] = tested on: parental cells (KB-3-1); details: read-out: IC50 of peptide; KB-3-1 (parental); MTT, 570 nm; at least three independent triplicate experiments
Source text: as §1, §2

[9] = tested on: parental cells NCI-H460; details: read-out: IC50 of peptide, MTT, 570 nm, at least three independent experiments in triplicate
Source text: as §1, §2

[10] = target: T1, ABCB1 (Homo sapiens, UniProt P08183); details: XH-14C 0–40 μM; vanadate-sensitive; phosphate read at 800 nm; three independent experiments
T1 sequence (P08183 whole entry): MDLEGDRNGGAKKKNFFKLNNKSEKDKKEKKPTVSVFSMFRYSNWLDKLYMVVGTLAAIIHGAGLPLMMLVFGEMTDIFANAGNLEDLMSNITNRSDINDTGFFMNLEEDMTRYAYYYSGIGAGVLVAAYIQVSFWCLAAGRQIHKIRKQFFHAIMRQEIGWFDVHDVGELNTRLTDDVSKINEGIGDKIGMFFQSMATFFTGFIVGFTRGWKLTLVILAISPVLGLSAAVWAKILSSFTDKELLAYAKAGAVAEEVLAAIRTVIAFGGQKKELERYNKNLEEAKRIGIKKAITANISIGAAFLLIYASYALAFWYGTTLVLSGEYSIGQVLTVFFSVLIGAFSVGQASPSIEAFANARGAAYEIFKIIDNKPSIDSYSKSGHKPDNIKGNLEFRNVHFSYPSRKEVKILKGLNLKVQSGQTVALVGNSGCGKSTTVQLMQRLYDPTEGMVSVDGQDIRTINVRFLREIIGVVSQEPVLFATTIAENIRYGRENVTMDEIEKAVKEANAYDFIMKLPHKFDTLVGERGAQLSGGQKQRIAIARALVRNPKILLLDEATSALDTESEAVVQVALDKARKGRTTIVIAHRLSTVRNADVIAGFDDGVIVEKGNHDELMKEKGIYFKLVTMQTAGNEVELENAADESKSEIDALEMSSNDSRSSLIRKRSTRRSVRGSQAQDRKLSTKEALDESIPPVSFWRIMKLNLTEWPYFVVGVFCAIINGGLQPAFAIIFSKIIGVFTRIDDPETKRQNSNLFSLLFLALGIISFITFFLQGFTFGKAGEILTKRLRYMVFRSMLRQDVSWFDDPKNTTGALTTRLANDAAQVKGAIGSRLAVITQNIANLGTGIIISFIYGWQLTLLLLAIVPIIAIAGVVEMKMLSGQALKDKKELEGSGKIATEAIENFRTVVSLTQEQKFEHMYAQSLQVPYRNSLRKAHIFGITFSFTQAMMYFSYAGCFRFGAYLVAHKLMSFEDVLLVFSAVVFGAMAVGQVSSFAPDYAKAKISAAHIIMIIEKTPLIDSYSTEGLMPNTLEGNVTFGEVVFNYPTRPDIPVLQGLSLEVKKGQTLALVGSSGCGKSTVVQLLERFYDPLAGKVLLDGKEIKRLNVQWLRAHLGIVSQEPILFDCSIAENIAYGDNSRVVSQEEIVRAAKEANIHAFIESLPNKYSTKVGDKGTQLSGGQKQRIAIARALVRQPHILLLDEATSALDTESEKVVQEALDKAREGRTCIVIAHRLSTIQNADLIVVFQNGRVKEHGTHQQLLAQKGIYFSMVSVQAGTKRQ
Description: The vanadate-sensitive membrane vesicles ABCB1 and ABCG2 ATPase activity were determined as previously described, and the ABCB1- and ABCG2-overexpressing cell membranes were purchased from BD Biosciences (San Jose, CA, USA). The ATPase activities were calculated based on the measurement of inorganic phosphate (IP)detected using a spectrophotometer at 800 nm.

[11] = tested on: ABCB1 on KB-C2 cells; type: cell-based, human
Description: (§3) [^3H]-paclitaxel (31 Ci/mmol, Moravek Biochemicals, Brea, CA, USA) was used to measure the drug accumulation and efflux as previously described. The only difference is that after the cells were seeded evenly in 24-well plate, the cells were incubated in the presence or absence of XH-14C and a parallel positive reversal agent for […]. Liquid scintillation cocktail used to measure the radioactivity was purchased from MP Biomedicals, Inc (St. Ana, CA, USA) and the radioactivity of different groups were read with the Packard TRI-CARB1 190‘A liquid scintillation analyzer. A parallel well of cells for each group was set up for cell number counting at the end of the assay for the purpose of data normalization.

[12] = tested on: ABCB1-overexpressing KB-C2 cells; type: cell-based, human
Description: as §3

[13] = tested on: KB-3-1 cells; test: [3H]-paclitaxel efflux assay in KB-3-1; type: cell-based, human; details: 2 h, with or without a reversal agent
Description: as §3

[14] = target: T1, ABCB1; set-up: purchased BD Biosciences (San Jose, CA, USA); method as in PMID 25456855; details: non-competitive inhibitor; cited from earlier work
[15] = Homo sapiens, KB-C2, read-out: IC50 of the anticancer drug alone
[16] = IC50 in NCI-H460/MX20 divided by IC50 in NCI-H460
[17] = KB-C2 cells (ABCB1-overexpressing human epidermal carcinoma)
[18] = NCI-H460/MX20 cells (ABCG2-overexpressing NSCLC)

N.N.[Cl][Pt][Cl] [Cisplatin, cisplatin]
IC50 [1]: 2.27 ± 0.489 µM | IC50 [2]: 2.76 ± 0.23 µM | IC50 [3]: 3.15 ± 0.47 µM | IC50 ([4]; read-out: IC50 of the anticancer drug alone, KB-C2, no reversal agent, mean ± SD, at least three independent experiments in triplicate): 1.76 ± 0.377 µM | IC50 [5]: 1.64 ± 0.487 µM

COc1cccc2c1C(=O)c1c(O)c3c(c(O)c1C2=O)C[C@@](O)(C(=O)CO)C[C@@H]3O[C@H]1C[C@H](N)[C@H](O)[C@H](C)O1 [Doxorubicin, doxorubicin]
IC50 ([1]; Homo sapiens): 1.226 ± 0.00188 µM | RF (resistant fold) of the anticancer drug alone [1]: 1.00 | IC50 [6]: 32.6 ± 4.81 µM | RF (resistant fold) of the anticancer drug alone [6]: 26.6 | IC50 [4, 15]: 67.6 ± 2.46 µM | RF (resistant fold) of the anticancer drug alone ([4]; no reversal agent): 53.0 | IC50 ([5]; Homo sapiens): 1.28 ± 0.189 µM | RF (resistant fold) of the anticancer drug alone [5]: 1.00

COc1ccc2c3c([nH]c2c1)[C@H](CC(C)C)N1C(=O)[C@H](CCC(=O)OC(C)(C)C)NC(=O)[C@@H]1C3 [Ko143]
RF of cisplatin in combination with reversal agent ([2]; cisplatin + reversal agent 3 μM, relative to NCI-H460): 1.26 | RF of mitoxantrone in combination with reversal agent ([2]; mitoxantrone + reversal agent 3 μM, relative to NCI-H460): 1.10 | RF of topotecan in combination with reversal agent ([2]; topotecan + reversal agent 3 μM, relative to NCI-H460): 0.76 | RF of cisplatin in combination with reversal agent ([3]; cisplatin + reversal agent 3 μM, IC50 in NCI-H460/MX20 divided by IC50 in NCI-H460): 1.23 | RF of mitoxantrone in combination with reversal agent ([3]; mitoxantrone + reversal agent 3 μM, IC50 in NCI-H460/MX20 divided by IC50 in NCI-H460): 2.28 | RF of topotecan in combination with reversal agent ([3]; topotecan + reversal agent 3 μM, IC50 in NCI-H460/MX20 divided by IC50 in NCI-H460): 1.96

O=C1c2c(O)ccc(O)c2C(=O)c2c(NCCNCCO)ccc(NCCNCCO)c21 [Mitoxantrone, mitoxantrone]
IC50 ([2]; Homo sapiens): 0.039 ± 0.005 µM | RF (resistant fold) of the anticancer drug alone [2]: 1.00 | IC50 ([3]; Homo sapiens): 36.6 ± 4.53 µM | RF (resistant fold) of the anticancer drug alone [3, 16]: 937

CC(=O)O[C@H]1C(=O)[C@@]2(C)[C@H]([C@H](OC(=O)c3ccccc3)[C@]3(O)C[C@H](OC(=O)[C@H](O)[C@@H](NC(=O)c4ccccc4)c4ccccc4)C(C)=C1C3(C)C)[C@]1(OC(C)=O)CO[C@@H]1C[C@@H]2O [Paclitaxel, paclitaxel]
IC50 ([1]; Homo sapiens): 0.0143 ± 0.00153 µM | RF (resistant fold) of the anticancer drug alone [1]: 1.00 | IC50 [6]: 0.306 ± 0.0454 µM | RF (resistant fold) of the anticancer drug alone [6]: 21.38 | IC50 [4, 15]: 1.31 ± 0.271 µM | RF (resistant fold) of the anticancer drug alone ([4]; no reversal agent): 437 | IC50 ([5]; Homo sapiens): 0.003 ± 0.0005 µM | RF (resistant fold) of the anticancer drug alone [5]: 1.00

CC[C@@]1(O)C(=O)OCc2c1cc1n(c2=O)Cc2cc3c(CN(C)C)c(O)ccc3nc2-1 [Topotecan, topotecan]
IC50 ([2]; Homo sapiens): 0.049 ± 0.006 µM | RF (resistant fold) of the anticancer drug alone [2]: 1.00 | IC50 ([3]; Homo sapiens): 39.2 ± 4.85 µM | RF (resistant fold) of the anticancer drug alone [3, 16]: 799

CC[C@H](C)[C@H](NC(=O)[C@H](CCCNC(=N)N)NC(=O)[C@H](CCCCN)NC(=O)[C@@H](NC(=O)[C@@H](N)Cc1ccccc1)[C@@H](C)CC)C(=O)N[C@@H](C)C(=O)N[C@@H](CCCNC(=N)N)C(=O)N[C@@H](CC(C)C)C(=O)N[C@@H](CC(C)C)C(=O)N[C@@H](CCCNC(=N)N)C(=O)N[C@@H](CCCCN)C(=O)N[C@H](C(=O)N[C@@H](CCCCN)C(=O)N[C@@H](CCCNC(=N)N)C(=O)O)[C@@H](C)CC [XH-14A] (H-FIKRIARLLRKIKR-OH)
IC50 [7, 17]: 22.4 µM | IC50 [7, 18]: 8.22 µM | IC50 [8]: 8.73 µM | IC50 [9]: 10.1 µM

CC[C@H](C)[C@H](NC(=O)[C@H](CCCNC(=N)N)NC(=O)[C@H](CCCCN)NC(=O)[C@@H](NC(=O)[C@@H](N)Cc1ccccc1)[C@@H](C)CC)C(=O)N[C@@H](C)C(=O)N[C@@H](CCCNC(=N)N)C(=O)N[C@@H](CC(C)C)C(=O)N[C@@H](CC(C)C)C(=O)N[C@@H](CCCNC(=N)N)C(=O)N[C@@H](CCCCN)C(=O)N[C@H](C(=O)N[C@@H](Cc1ccccc1)C(=O)N[C@@H](CCCNC(=N)N)C(=O)O)[C@@H](C)CC [XH-14B] (H-FIKRIARLLRKIFR-OH)
IC50 [7, 17]: 8.38 µM | IC50 [7, 18]: 7.28 µM | IC50 [8]: 10 µM | IC50 [9]: 9.37 µM

CC[C@H](C)[C@H](NC(=O)[C@H](CCCNC(=N)N)NC(=O)[C@H](CCCCN)NC(=O)[C@@H](NC(=O)[C@@H](N)Cc1ccccc1)[C@@H](C)CC)C(=O)N[C@@H](C)C(=O)N[C@@H](CCCNC(=N)N)C(=O)N[C@@H](CC(C)C)C(=O)N[C@@H](CC(C)C)C(=O)N[C@@H](CCCNC(=N)N)C(=O)N[C@@H](CCCCN)C(=O)N[C@H](C(=O)N[C@@H](Cc1c[nH]c2ccccc12)C(=O)N[C@@H](CCCNC(=N)N)C(=O)O)[C@@H](C)CC [XH-14C] (H-FIKRIARLLRKIWR-OH)
maximal stimulation of ABCB1 ATPase activity [10]: 3.28 fold | IC50 [7, 17]: 7.82 µM | IC50 [7, 18]: 8.3 µM | effect on cytotoxicity of cisplatin ([4]; non-substrate of ABCB1, all tested cell lines): no effect on the cytotoxicity of cisplatin | IC50 [8]: 8.12 µM | IC50 [9]: 9.07 µM

CC(=O)O[C@H]1C(=O)[C@@]2(C)[C@H]([C@H](OC(=O)c3ccccc3)[C@]3(O)C[C@H](OC(=O)[C@H](O)[C@@H](NC(=O)c4ccccc4)c4ccccc4)C(C)=C1C3(C)C)[C@]1(OC(C)=O)CO[C@@H]1C[C@@H]2O [[^3H]-paclitaxel]
decrease in intracellular [3H]-paclitaxel (efflux) without XH-14C [11]: about 50% | intracellular [3H]-paclitaxel in KB-C2, fold lower than in KB-3-1 [12]: more than 100 fold | change of cellular [3H]-paclitaxel in KB-3-1 [13]: did not significantly change

COc1cc2c(cc1OC)CN(CCc1ccc(NC(=O)c3cc(OC)c(OC)cc3NC(=O)c3cnc4ccccc4c3)cc1)CC2 [tariquidar]
ABCB1 ATPase stimulation [14]: able to stimulate ABCB1 ATPase activity
